According to paper PMC5895817, “A Bowman-Birk type chymotrypsin inhibitor peptide from the amphibian, Hylarana erythraea” (Scientific Reports, 2018):
Entries after “also recorded” stand apart in the source; their conditions may differ.

Tests used:
human 20 S proteasome = biological target: T1, human 20 S proteasome (Homo sapiens, UniProt P28074); assay: Human 20 S proteasome inhibition (chymotrypsin-like activity); type: biochemical; settings: chymotrypsin-like activity of human 20 S proteasome (7 nM working solution); substrate Suc-Leu-Leu-Val-Tyr-AMC; 50 mM HEPES, 0.035% SDS, pH 7.5; pre-incubation 15 min, 37 °C; Morrison equation; duplicate, repeated three times
T1 construct: purchased Biochem, Boston, MA, USA
Experimental: (§1) Phe-Pro-Arg-AMC, Succinyl-Ala-Ala-Pro-Phe-AMC and Suc-Leu-Leu-Val-Tyr-AMC (Abcam, Cambridge, UK) were used as substrates for trypsin, chymotrypsin and human 20 S proteasome respectively. 10 μl trypsin/chymotrypsin working solution (1 µg/ml) were added to the wells of a micro-titre plate containing 180 μl substrate and various inhibitor solutions. 10 μl human 20 S proteasome (Biochem, Boston, MA, USA) working solution (7 nM) in 50 mM HEPES buffer containing 0.035% SDS, pH 7.5 was added to the well of a micro-titre plate containing 180 μl substrate solution and each of various inhibitor solution. Each determination was carried out in duplicate. The rate of hydrolysis of the trypsin/chymotrypsin substrate was monitored subsequently and continuously, at 37 °C, by measuring the rate of increase of fluorescence in a FLUOstar OPTIMA multi-well plate reader (BMG Labtech, Ortenberg, Germany). For the 20 S proteasome, the rate of hydrolysis of the substrate was monitored after a pre-incubation for 15 min, at 37 °C. […] Each assay was repeated three times.

chymotrypsin = chymotrypsin (Bos taurus, UniProt P00766); assay: Trypsin/chymotrypsin inhibition assay (Morrison): chymotrypsin; type: biochemical
Experimental: as §1

trypsin = biological target: T2, trypsin (Bos taurus, UniProt P00760); assay: Trypsin/chymotrypsin inhibition assay (Morrison): trypsin; type: biochemical; settings: substrate Phe-Pro-Arg-AMC, 37 °C, fluorescence, Morrison equation, each determination in duplicate, assay repeated three times
T2 construct: gene PRSS1
T2 sequence (P00760 24-246): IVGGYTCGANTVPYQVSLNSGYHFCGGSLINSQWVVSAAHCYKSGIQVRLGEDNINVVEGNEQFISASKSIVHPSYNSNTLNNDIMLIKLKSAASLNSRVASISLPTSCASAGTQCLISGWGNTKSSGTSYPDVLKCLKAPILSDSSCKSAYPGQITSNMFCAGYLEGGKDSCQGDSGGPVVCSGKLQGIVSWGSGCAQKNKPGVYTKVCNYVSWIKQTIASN
Experimental: as §1

HMEC-1 = assay: MTT cell viability, normal cell line HMEC-1; type: cell-based; settings: 24 h, 5 replicates, three independent experiments
Experimental: The cancer cell line H157 (ATCC-CRL-5802, ATCC, Teddington, Middlesex, UK) and PC-3 (ATCC-CRL-1435, ATCC, Teddington, Middlesex, UK) were cultured in RPMI-1640 culture medium (Invitrogen, Paisley, UK) containing 10% FBS and 1% Penicillin-Streptomycin. MCF-7 (ATCC-HTB-22, ATCC, Teddington, Middlesex, UK) was cultured in DMEM culture medium (Invitrogen, Paisley, UK) containing 10% FBS and 1% Penicillin-Streptomycin. The normal cell line HMEC-1 (ATCC-CRL-3243, ATCC, Teddington, Middlesex, UK) was cultured in MCDB131 medium (Gibco, Paisley, UK) containing 10% FBS (foetal bovine serum, obtained from Sigma-Aldrich, St. Louis, MO, USA), 1% Penicillin-Streptomycin (Invitrogen, Paisley, UK), epidermal growth factor (10 ng/mL), hydrocortisone (1 μg/mL, obtained from Sigma-Aldrich, St. Louis, MO, USA) and glutamine (10 mM). Cells were seeded into a 96-well plate and incubated for 24 h (37 °C, 5% CO2) followed by starvation using serum-free medium. Sample solutions were loaded on this plate which was further incubated for 24 h. The 3-(4,5-dimethylthiazol-2-yl)-2,5-diphenyltetrazolium bromide (MTT) solution (5 mg/ml, 10 μl/well) was utilized to form the formazan after a 4 h incubation. Cell-produced-formazan was dissolved in DMSO (100 μl/well). The absorbance was recorded by using an ELx808^TM Absorbance Microplate Reader at 570 nm (BioTek Instruments, Inc., Winooski, VT, USA). […]

horse erythrocytes = assay: Haemolysis activity test; type: cell-based; settings: 2% suspension in PBS, 1–512 μM, 37 °C, 4 h, absorbance 550 nm, 5 replicates, three independent experiments
Experimental: Completely washed horse erythrocyte (TCS Biosciences Ltd., Buckingham, UK) suspension was prepared using phosphate-buffered saline (PBS). A series of peptide solutions were incubated with a 2% suspension of red blood cells at final concentrations of 1–512 μM at 37 °C for 4 h. After the incubation, 200 μl of each supernatant was transferred into a 96-well plate and the absorbance at 550 nm was measured with a Synergy HT plate reader (BioTek Instruments, Inc., Winooski, VT, USA). The BioTek’s Gen5^TM software was used to analyse the result. (Biolise BioTek EL808, Winooski, VT, USA). All the peptide concentrations and controls had 5 replicates in single 96-well plate and three independent experiments were performed.

Structure (SMILES) | Ki (human 20 S proteasome) [µM] | Ki (chymotrypsin) [µM] | Ki (trypsin) [µM] | cytotoxicity / growth inhibition on normal cells HMEC-1 (HMEC-1) | haemolysis (horse erythrocytes)
CC[C@H](C)[C@H](NC(=O)[C@@H]1CSSC[C@H](NC(=O)CNC(=O)[C@H](CCCNC(=N)N)NC(=O)[C@H](CC(C)C)NC(=O)[C@@H](NC(=O)[C@@H](N)[C@@H](C)O)C(C)C)C(=O)N[C@@H](Cc2c[nH]c3ccccc23)C(=O)N[C@@H]([C@@H](C)O)C(=O)N[C@@H](Cc2ccccc2)C(=O)N[C@@H](CO)C(=O)N[C@@H](Cc2ccccc2)C(=O)N2CCC[C@H]2C(=O)N2CCC[C@H]2C(=O)N[C@@H](CCCCN)C(=O)N2CCC[C@H]2C(=O)N1)C(N)=O [HECI, TVLRGCWTFSFPPKPCI-NH2] | 8.55 ± 1.84 |  |  |  | 
CC[C@H](C)[C@H](NC(=O)[C@@H]1CSSC[C@H](NC(=O)CNC(=O)[C@H](CCCNC(=N)N)NC(=O)[C@H](CC(C)C)NC(=O)[C@@H](NC(=O)[C@@H](N)[C@@H](C)O)C(C)C)C(=O)N[C@@H](Cc2c[nH]c3ccccc23)C(=O)N[C@@H]([C@@H](C)O)C(=O)N[C@@H](CCCCN)C(=O)N[C@@H](CO)C(=O)N[C@@H](Cc2ccccc2)C(=O)N2CCC[C@H]2C(=O)N2CCC[C@H]2C(=O)N[C@@H](CCCCN)C(=O)N2CCC[C@H]2C(=O)N1)C(N)=O [K^9-HECI, TVLRGCWTKSFPPKPCI-NH2] |  | 13.9 ± 1.09 | 0.79 ± 0.04 | low degree of cytotoxicity; also recorded: low degree of inhibition; also recorded: only slight cytotoxicity on HMEC-1 | low degree of haemolytic activity; also recorded: low degree of haemolysis
